The source made the active and inactive calls.
Assays:
[1] = target: Cytochrome P450 2D6 (Homo sapiens, UniProt P10635);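 also: CYP2D6 member of a cytochrome P450 panel assay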
[2] = target: Cytochrome P450 2C19 (Homo sapiens, UniProt P33261); test: Cytochrome panel assay with activity outcomes. Panel member name: p450-cyp2c19 Compounds with AC50 equal or less than 10 uM are considered active; type: functional
[3] = target: Cytochrome P450 2C9 (Homo sapiens, UniProt P11712)
[4] = target: T1, Rac GTPase-activating protein 1 (Homo sapiens, UniProt Q9H0H5); test: MgcRacGAP GTPase-activating activity inhibitors, confirmation, biochemical, ADP Hunter fluorescence, primary and confirmatory (AID 624330); type: functional
T1 sequence (Q9H0H5 whole entry): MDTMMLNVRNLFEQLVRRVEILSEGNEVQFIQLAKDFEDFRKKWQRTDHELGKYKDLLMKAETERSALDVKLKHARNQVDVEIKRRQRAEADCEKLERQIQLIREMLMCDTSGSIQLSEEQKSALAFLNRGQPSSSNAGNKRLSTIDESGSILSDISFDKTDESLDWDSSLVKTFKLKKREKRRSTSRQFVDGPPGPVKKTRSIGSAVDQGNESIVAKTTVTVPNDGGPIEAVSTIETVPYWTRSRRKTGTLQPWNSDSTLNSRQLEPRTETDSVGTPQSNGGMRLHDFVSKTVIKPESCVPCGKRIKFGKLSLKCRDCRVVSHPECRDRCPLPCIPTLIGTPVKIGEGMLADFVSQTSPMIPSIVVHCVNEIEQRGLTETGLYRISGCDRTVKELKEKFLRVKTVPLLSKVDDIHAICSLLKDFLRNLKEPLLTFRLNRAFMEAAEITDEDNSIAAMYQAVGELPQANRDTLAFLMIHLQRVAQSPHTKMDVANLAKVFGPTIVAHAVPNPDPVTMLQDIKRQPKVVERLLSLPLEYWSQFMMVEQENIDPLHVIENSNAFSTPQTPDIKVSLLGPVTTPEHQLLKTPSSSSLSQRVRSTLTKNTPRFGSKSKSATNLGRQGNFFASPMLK

[5] = target: T2, Protein RecA (Mycobacterium tuberculosis, UniProt P9WHJ3); test: Fluorescence Cell-Free Homogeneous Dose Retest to Identify Inhibitors of RecA-Intein Splicing Activity. [Related pubchem assays (depositor defined):AID2097, AID2223, AID489010, AID492950]; type: functional
T2 sequence (P9WHJ3 whole entry): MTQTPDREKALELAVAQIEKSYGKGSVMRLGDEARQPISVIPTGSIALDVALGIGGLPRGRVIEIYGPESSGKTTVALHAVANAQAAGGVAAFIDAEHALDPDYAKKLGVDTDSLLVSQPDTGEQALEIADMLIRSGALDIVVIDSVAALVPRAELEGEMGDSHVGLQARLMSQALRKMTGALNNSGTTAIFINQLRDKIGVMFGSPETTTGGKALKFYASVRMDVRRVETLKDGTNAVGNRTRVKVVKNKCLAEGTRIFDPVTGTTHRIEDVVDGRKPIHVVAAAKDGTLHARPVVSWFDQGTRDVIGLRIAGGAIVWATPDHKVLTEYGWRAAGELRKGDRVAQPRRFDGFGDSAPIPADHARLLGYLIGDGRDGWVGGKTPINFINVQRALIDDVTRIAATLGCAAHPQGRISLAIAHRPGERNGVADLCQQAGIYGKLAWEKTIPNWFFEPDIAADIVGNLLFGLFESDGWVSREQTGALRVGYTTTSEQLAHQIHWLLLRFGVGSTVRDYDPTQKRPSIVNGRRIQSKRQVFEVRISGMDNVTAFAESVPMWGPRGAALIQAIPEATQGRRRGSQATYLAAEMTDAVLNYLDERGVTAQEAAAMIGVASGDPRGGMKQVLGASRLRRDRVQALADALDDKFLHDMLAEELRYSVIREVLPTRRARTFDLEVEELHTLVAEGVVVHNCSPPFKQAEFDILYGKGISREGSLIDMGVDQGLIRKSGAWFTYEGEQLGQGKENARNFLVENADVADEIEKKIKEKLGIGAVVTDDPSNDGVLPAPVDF

[6] = target: T3, Replicative DNA helicase DnaB (Mycobacterium tuberculosis, UniProt P9WMR3); test: DnaB intein splicing inhibitors, dose response, biochemical, cell-free fluorescence (AID 449749); type: functional
T3 sequence (P9WMR3 whole entry): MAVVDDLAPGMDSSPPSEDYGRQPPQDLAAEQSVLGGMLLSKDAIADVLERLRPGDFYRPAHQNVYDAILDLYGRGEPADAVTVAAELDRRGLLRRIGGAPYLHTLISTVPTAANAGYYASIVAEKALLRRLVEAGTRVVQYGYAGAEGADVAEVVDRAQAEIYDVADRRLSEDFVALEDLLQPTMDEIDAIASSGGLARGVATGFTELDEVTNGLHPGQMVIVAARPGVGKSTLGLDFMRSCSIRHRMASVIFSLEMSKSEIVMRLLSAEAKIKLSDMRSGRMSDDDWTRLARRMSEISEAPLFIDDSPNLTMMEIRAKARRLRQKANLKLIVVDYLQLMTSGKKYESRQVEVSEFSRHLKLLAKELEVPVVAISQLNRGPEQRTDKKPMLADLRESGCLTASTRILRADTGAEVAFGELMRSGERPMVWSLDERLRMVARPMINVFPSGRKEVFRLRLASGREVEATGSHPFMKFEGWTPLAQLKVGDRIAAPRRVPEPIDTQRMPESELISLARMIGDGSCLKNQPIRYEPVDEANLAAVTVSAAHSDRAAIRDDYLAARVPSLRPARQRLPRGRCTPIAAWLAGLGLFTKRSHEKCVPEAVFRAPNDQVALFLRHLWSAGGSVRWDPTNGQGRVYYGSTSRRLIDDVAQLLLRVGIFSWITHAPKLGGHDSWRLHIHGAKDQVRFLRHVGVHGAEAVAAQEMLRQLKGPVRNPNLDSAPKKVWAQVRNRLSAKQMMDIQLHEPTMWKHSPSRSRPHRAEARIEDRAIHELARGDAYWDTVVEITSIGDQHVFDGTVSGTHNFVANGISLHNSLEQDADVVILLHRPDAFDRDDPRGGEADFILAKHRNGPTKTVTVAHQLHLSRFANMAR

[7] = target: T4, Cytochrome P450 1A2 (Homo sapiens, UniProt P05177);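 also: PubChem cytochrome P450 panel assay, CYP1A2 panel member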
T4 sequence (P05177 whole entry): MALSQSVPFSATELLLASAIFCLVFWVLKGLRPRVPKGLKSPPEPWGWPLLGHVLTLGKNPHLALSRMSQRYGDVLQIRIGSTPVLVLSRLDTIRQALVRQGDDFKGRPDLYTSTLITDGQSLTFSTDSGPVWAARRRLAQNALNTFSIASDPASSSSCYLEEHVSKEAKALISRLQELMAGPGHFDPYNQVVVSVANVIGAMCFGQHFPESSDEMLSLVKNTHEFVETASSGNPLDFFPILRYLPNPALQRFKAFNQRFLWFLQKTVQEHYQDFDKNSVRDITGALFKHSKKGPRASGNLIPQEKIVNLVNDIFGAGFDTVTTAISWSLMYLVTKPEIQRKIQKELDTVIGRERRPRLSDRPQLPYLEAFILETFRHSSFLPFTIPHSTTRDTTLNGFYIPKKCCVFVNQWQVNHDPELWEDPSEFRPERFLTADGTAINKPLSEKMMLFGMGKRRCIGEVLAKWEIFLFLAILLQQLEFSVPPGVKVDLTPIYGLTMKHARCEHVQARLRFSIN

Chain of Cytochrome P450 2C19 (P33261 whole entry): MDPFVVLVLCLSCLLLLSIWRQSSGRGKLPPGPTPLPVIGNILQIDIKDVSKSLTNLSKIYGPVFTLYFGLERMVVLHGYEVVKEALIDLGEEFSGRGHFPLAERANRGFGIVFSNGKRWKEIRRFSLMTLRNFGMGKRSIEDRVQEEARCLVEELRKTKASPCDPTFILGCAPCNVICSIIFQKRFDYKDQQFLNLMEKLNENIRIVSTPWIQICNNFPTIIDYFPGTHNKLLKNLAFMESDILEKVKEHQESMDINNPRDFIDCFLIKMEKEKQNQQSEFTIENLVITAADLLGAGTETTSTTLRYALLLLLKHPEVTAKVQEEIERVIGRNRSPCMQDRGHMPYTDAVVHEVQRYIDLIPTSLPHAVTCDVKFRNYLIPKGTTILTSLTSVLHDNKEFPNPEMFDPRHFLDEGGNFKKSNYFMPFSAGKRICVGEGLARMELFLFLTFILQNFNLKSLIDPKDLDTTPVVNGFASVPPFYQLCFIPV
Chain of Cytochrome P450 2D6 (P10635 whole entry): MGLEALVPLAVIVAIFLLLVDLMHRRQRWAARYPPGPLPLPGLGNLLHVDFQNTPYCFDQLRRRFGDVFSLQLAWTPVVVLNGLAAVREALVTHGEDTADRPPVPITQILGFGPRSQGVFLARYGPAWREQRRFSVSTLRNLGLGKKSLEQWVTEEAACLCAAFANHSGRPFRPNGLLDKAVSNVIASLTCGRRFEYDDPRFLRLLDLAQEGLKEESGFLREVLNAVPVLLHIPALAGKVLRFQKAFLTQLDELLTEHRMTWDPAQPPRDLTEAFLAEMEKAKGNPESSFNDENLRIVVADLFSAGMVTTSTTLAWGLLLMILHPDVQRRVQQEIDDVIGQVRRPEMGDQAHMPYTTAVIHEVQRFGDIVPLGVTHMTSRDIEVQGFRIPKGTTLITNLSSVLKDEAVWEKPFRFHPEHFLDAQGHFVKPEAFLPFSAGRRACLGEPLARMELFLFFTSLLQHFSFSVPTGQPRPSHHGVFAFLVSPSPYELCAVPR
Chain of Cytochrome P450 2C9 (P11712 whole entry): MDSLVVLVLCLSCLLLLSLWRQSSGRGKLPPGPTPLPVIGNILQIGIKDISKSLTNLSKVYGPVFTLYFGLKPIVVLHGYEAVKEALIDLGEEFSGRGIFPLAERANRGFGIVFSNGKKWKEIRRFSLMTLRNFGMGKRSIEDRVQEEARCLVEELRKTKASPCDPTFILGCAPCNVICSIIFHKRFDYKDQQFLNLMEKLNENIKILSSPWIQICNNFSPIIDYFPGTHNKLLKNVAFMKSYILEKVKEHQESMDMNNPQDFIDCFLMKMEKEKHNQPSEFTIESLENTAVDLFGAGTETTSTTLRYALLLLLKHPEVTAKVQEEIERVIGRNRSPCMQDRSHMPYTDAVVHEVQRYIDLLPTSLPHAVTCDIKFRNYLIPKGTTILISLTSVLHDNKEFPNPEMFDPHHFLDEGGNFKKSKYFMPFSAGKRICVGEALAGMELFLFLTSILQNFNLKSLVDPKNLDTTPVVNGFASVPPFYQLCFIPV

## Cn1c(=O)c(C(=O)CN2CCOCC2)c(N)n(Cc2ccccc2)c1=O
[1]
  AC50: 7.94 µM (inconclusive)
[2]; read-out: AC50
  AC50: 39.8 µM (inconclusive)

## Cn1cc(C(=O)c2cccc(Cl)c2Cl)cc1C(=O)O
[3]
  AC50: 31.6 µM (inconclusive)

## c1ccc2c(Nc3ccncc3)nc(-c3ccoc3)nc2c1
[1]
  AC50: 15.8 µM (inconclusive)

## Cc1cc(OCc2nc3ccccc3s2)ccc1N
[4]
  IC50: 60.7 µM (active)

## CCOC(=O)Cn1cc(/C=N/NC(=O)CC#N)c2ccccc21
[5]
  EC50: 6.38 µM (active)
[6]
  AC50: 61.1 µM (active)

## CCOc1ccccc1C1C(C(N)=O)=C(C)Nc2nc(-c3ccc(OC)cc3)nn21 (centres undefined)
[1]
  AC50: 1 µM (inconclusive)
[7]
  AC50: 15.8 µM (inconclusive)
[3]
  AC50: 15.8 µM (inconclusive)

## COC(=O)[C@@]1(Cc2ccccc2)[C@H]2c3cc(C(=O)N4CCCC4)n(Cc4ccccn4)c3C[C@H]2CN1C(=O)c1ccccc1
[1]
  AC50: 39.8 µM (inconclusive)

## Cc1cccn2c(S)nnc12
[4]
  IC50: 17.2 µM (active)

## Cn1cccc1C(=O)N1CCC2(CC1)CCN(c1ccncc1)CC2
[1]
  AC50: 25.1 µM (inconclusive)
[7]
  AC50: 15.8 µM (inconclusive)

## COc1cccc(/C=N/NC(=O)c2c(-c3ccccc3)noc2C)c1
[1]
  AC50: 17.8 µM (inconclusive)

## COc1cc(CNCc2cc(OC)c(OC)c(OC)c2)cc(OC)c1
[4]
  IC50: 203 µM (active)

## O=C(NCc1ccccc1)/C(=C\c1ccc(O)cc1)NC(=O)c1ccco1
[4]
  IC50: 141 µM (active)

## COc1ccccc1NC(=O)CN1CCN(CC(=O)Nc2ccc(OCc3ccccc3)cc2)CC1
[1]
  AC50: 20 µM (inconclusive)
[7]
  AC50: 10 µM (inconclusive)

## Cc1cccn2c(NCc3ccc4c(c3)OCO4)c(-c3ccc(O)cc3)nc12
[4]
  IC50: 68.7 µM (active)

## CC(C)Oc1ccc(OCCn2c(S)nc3c(N)ncnc32)cc1
[4]
  IC50: 95.3 µM (active)

## COc1ccccc1N1CCN(CCN(C(=O)C2CCCCC2)c2ccccn2)CC1 [WAY-100,635]
[1]
  AC50: 31.6 µM (inconclusive)

## COc1ccc(NCc2nnc(SCc3ccccc3)n2-c2ccc(OC)cc2)cc1
[7]
  AC50: 17.8 µM (inconclusive)
[3]
  AC50: 12.6 µM (inconclusive)

## COc1cc(/C=N/NC(=O)C2CCN(CC(O)COCc3ccccc3)CC2)ccc1O (centres undefined)
[4]
  IC50: 31.5 µM (active)

## COc1cc(/C=N/NC(=O)c2[nH]nc3c2CCc2ccccc2-3)ccc1O
[4]
  IC50: 54.3 µM (active)

## O=C(ON=C1CCN(S(=O)(=O)c2ccccc2)CC1)c1ccccc1
[3]
  AC50: 31.6 µM (inconclusive)

## CN(CCCCCCN(C)Cc1ccccc1O)Cc1ccccc1O
[4]
  IC50: 73.6 µM (active)

## Cc1ccc2c(CC(=O)OCc3cc(=O)n4c(n3)sc3ccccc34)coc2c1
[1]
  AC50: 31.6 µM (inconclusive)

## O=C(c1ccncc1)N1CCC2(CC1)CCN(c1cccc(-c3ccccc3)c1)CC2
[7]
  AC50: 20 µM (inconclusive)
[3]
  AC50: 12.6 µM (inconclusive)

## CN1CCN(C(=O)C(C(=O)c2ccc(F)cc2)n2ccccc2=O)CC1 (centres undefined)
[2]
  AC50: inconclusive

## Cc1noc(C)c1-c1cc(N(C)Cc2ccco2)ncn1
[2]; read-out: AC50
  AC50: 15.8 µM (inconclusive)

## COc1ccccc1CNc1cc(-c2cccnc2)ncn1
[2]; read-out: AC50
  AC50: 15.8 µM (inconclusive)

## Cc1ccc(C(=O)Oc2cc(C)n(C)c(=O)c2)cc1
[7]
  AC50: 25.1 µM (inconclusive)
[3]
  AC50: 11.2 µM (inconclusive)

## COc1cc(/C=N/NC(=O)c2cccnc2)ccc1OC(=O)c1ccco1
[2]; read-out: AC50
  AC50: 8.91 µM (inconclusive)
[3]
  AC50: 28.2 µM (inconclusive)

## CN(C)C(=O)c1ccc(-c2nc(NCc3ccccc3)c3ccccc3n2)cc1
[1]
  AC50: 39.8 µM (inconclusive)
[2]; read-out: AC50
  AC50: 25.1 µM (inconclusive)

## Nc1nc(N)c(CCCCc2ccccc2)c(N)n1
[1]
  AC50: 3.98 µM (inconclusive)

## c1ccc2c(c1)ncn2Cc1nnc2sc(-c3ccc4c(c3)OCO4)nn12
[1]
  AC50: 15.8 µM (inconclusive)
[2]; read-out: AC50
  AC50: 15.8 µM (inconclusive)
[7]
  AC50: 1.12 µM (inconclusive)

## COc1ccc(-n2ncc3c(NCC4CCCO4)ncnc32)cc1 (centres undefined)
[2]; read-out: AC50
  AC50: 8.91 µM (inconclusive)
[3]
  AC50: 12.6 µM (inconclusive)

## COc1ccc(C(=O)NC2CC3CCCC(C2)N3CC(C)C)cc1OC (centres undefined)
[3]
  AC50: 22.4 µM (inconclusive)

## Fc1ccc(-c2ccnc3nc(N4CCOCC4)nn23)cc1
[2]; read-out: AC50
  AC50: 3.55 µM (inconclusive)

## CN(C)c1ccc(-c2cncnc2-n2ccnc2)cc1
[1]
  AC50: 39.8 µM (inconclusive)

## COc1cc(-c2nc3cnccn3c2Nc2c(C)cccc2C)ccc1O
[4]
  IC50: 46.4 µM (active)

## O=C(CSc1nc2ccccc2s1)NNC(=S)Nc1ccc(Br)cc1
[1]
  AC50: 3.55 µM (inconclusive)

## COC(=O)CSc1nnc(CNc2ccc(Cl)cc2)n1-c1ccccc1
[3]
  AC50: 22.4 µM (inconclusive)

## Cc1cc(C)cc(-n2c(C)cc(C=C(C#N)C#N)c2C)c1
[3]
  AC50: 2.51 µM (inconclusive)

## O=c1cc(-c2ccc(O)c(O)c2)oc2cc(O)c([C@@H]3O[C@H](CO)[C@@H](O)[C@H](O)[C@H]3O)c(O)c12 [ISOORIENTIN]
[4]
  IC50: 40.9 µM (active)

## O=C(c1cnccn1)N1CCC2(CCCN(c3cccc(-c4ccccc4)c3)C2)CC1
[2]; read-out: AC50
  AC50: 7.94 µM (inconclusive)

## CC(C(=O)NCC(=O)Nc1ccc(F)c(F)c1F)N1CCN(c2ccc(O)cc2)CC1 (centres undefined)
[4]
  IC50: 42.5 µM (active)

## Cc1ccccc1-c1cc(NCc2ccccc2)ncn1
[1]
  AC50: 31.6 µM (inconclusive)

## Cc1ccccc1-c1cncnc1NCCN1CCOCC1
[1]
  AC50: 39.8 µM (inconclusive)
[7]
  AC50: 15.8 µM (inconclusive)

Source: ChEMBL document CHEMBL1201862, “PubChem BioAssay data set” (2004)
